Tests used:
[1] = system: antibodies in sera from SARS patients (sera 1a, 1b, 2, 6, 37, 62, London, SARS-yellow, SARS-green); type: binding, human; set-up: Binding of serum 6 to linear peptides of protein X1 of SARS-CoV Urbani / Binding of serum 37 to linear peptides of protein X1 of SARS-CoV Urbani / Binding of serum 6 to looped/cyclic peptide (PEPSCAN-ELISA) / Binding of serum 37 to looped/cyclic peptide (PEPSCAN-ELISA) / Binding of serum 37 to looped/cyclic peptides of protein X1 of SARS-CoV Urbani / Binding of serum 6 to linear peptides of protein X2 / Binding of serum 37 to linear peptides of protein X2 / Binding of serum 37 to looped/cyclic peptides of protein X2 of SARS-CoV Urbani / Binding of serum 6 to linear peptides of protein M of SARS-CoV Urbani / Binding of serum 37 to linear peptides of protein M of SARS-CoV Urbani / Binding of serum 6 to looped/cyclic peptides of protein M of SARS-CoV Urbani / Binding of serum 37 to looped/cyclic peptides of protein M of SARS-CoV Urbani / Binding of serum 6 to linear peptides of protein X3 of SARS-CoV Urbani / Binding of serum 37 to linear peptides of protein X3 of SARS-CoV Urbani / Binding of serum 37 to looped/cyclic peptides of protein X3 of SARS-CoV Urbani / Binding of serum 6 to linear peptides of protein X4 of SARS-CoV Urbani / Binding of serum 37 to linear peptides of protein X4 of SARS-CoV Urbani / Binding of serum 37 to looped/cyclic peptides of protein X4 of SARS-CoV Urbani / Binding of serum 6 to linear peptides of protein X5 of SARS-CoV Urbani / Binding of serum 37 to linear peptides of protein X5 of SARS-CoV Urbani / Binding of serum 37 to looped/cyclic peptides of protein X5 of SARS-CoV Urbani / Binding of serum 6 to linear peptides of protein N of SARS-CoV Urbani / Binding of serum 37 to linear peptides of protein N of SARS-CoV Urbani / Binding of serum 6 to linear peptide (PEPSCAN-ELISA) / Binding of serum 1a to looped/cyclic peptides of protein N of SARS-CoV Urbani / Binding of serum 1b to looped/cyclic peptides of protein N of SARS-CoV Urbani / Binding of serum 2 to looped/cyclic peptides of protein N of SARS-CoV Urbani / Binding of serum 6 to looped/cyclic peptides of protein N of SARS-CoV Urbani / Binding of serum 37 to looped/cyclic peptides of protein N of SARS-CoV Urbani / Binding of serum 62 to looped/cyclic peptides of protein N of SARS-CoV Urbani / Binding of serum London to looped/cyclic peptides of protein N of SARS-CoV Urbani / Binding of serum SARS-green to looped/cyclic peptides of protein N of SARS-CoV Urbani: unit not given here
[2] = system: control sera (pooled serum of ten healthy LUMC hospital workers; commercial negative donor pooled serum from the Dutch bloodbank); type: binding, human; set-up: Binding of Control serum LUMC to linear peptides / Binding of Control serum Blood-bank to linear peptides / Binding of Control serum LUMC to looped peptides / Binding of Control Serum Blood-Bank to Looped peptides / Binding of Control serum LUMC to linear peptides of the protein M of SARS-CoV Urbani / Binding of Control serum Blood-bank to linear peptides of the protein M of SARS-CoV Urbani / Binding of Control serum LUMC to looped peptides of the protein M of SARS-CoV Urbani / Binding of Control Serum Blood-Bank to Looped peptides of the protein M of SARS-CoV Urbani: unit not given here
[3] = system: rabbit serum obtained by immunizing a rabbit with the SARS-CoV strain Frankfurt 1; type: binding; set-up: Binding of a rabbit serum to linear peptides / Binding of a rabbit serum to looped peptides / Rabbit serum linear peptides / Rabbit serum looped peptides / Binding of a rabbit serum to linear peptides of protein N of SARS-CoV Urbani (Rabbit serum linear peptides) / Binding of a rabbit serum to looped/cyclic peptides of protein N of SARS-CoV Urbani (Rabbit serum looped peptides): unit not given here
[4] = system: recombinant human anti-SARS-CoV antibody 03-018; type: binding; set-up: Binding of antibody 03-018 to linear peptides of the N protein of SARS-CoV Urbani / Binding of antibody 03-018 to looped/cyclic peptides of the N protein of SARS-CoV Urbani: unit not given here

| Sequence | Binding of serum 1a to linear peptides of protein N of SARS-CoV Urbani [1] | Binding of serum 1a to looped/cyclic peptides of protein N of SARS-CoV Urbani [1] | Binding of serum 1b to linear peptides of protein N of SARS-CoV Urbani [1] | Binding of serum 1b to looped/cyclic peptides of protein N of SARS-CoV Urbani [1] | Binding of serum 2 to linear peptides of protein N of SARS-CoV Urbani [1] | Binding of serum 2 to looped/cyclic peptides of protein N of SARS-CoV Urbani [1] | Binding of serum 6 to linear peptides of protein N of SARS-CoV Urbani [1] | Binding of serum 6 to looped/cyclic peptides of protein N of SARS-CoV Urbani [1] | Binding of serum 37 to linear peptides of protein N of SARS-CoV Urbani [1] | Binding of serum 37 to looped/cyclic peptides of protein N of SARS-CoV Urbani [1] | Binding of serum 62 to linear peptides of protein N of SARS-CoV Urbani [1] | Binding of serum 62 to looped/cyclic peptides of protein N of SARS-CoV Urbani [1] | Binding of serum London to linear peptides of protein N of SARS-CoV Urbani [1] | Binding of serum London to looped/cyclic peptides of protein N of SARS-CoV Urbani [1] | Binding of serum SARS-green to looped/cyclic peptides of protein N of SARS-CoV Urbani [1] | Binding of serum SARS-yellow to looped/cyclic peptides of protein N of SARS-CoV Urbani [1] | Binding of a rabbit serum to linear peptides of protein N of SARS-CoV Urbani (Rabbit serum linear peptides) [3] | Binding of a rabbit serum to looped/cyclic peptides of protein N of SARS-CoV Urbani (Rabbit serum looped peptides) [3] | Binding of antibody 03-018 to linear peptides of the N protein of SARS-CoV Urbani [4] | Binding of antibody 03-018 to looped/cyclic peptides of the N protein of SARS-CoV Urbani [4] | other results |
| --- | --- | --- | --- | --- | --- | --- | --- | --- | --- | --- | --- | --- | --- | --- | --- | --- | --- | --- | --- | --- | --- |
| PQIAQFAPSASAFFG | 0.2 | 0.4 | 0.1 | 0.3 | 0.2 | 0.4 | 0.1 | 0.3 | 0.6 | 0.7 | 0.6 | 0.7 | 0.5 | 0.5 | 0.4 | 0.5 | 0.1 | 0.5 | 0.1 | 0.2 | Binding of serum SARS-green to linear peptides of protein N of SARS-CoV Urbani [1]: 0.6; Binding of serum SARS-yellow to linear peptides of protein N of SARS-CoV Urbani [1]: 0.6; Control Serum Blood-Bank Looped peptides [2]: 0.8; Control serum Blood-bank linear peptides [2]: 0.7; Control serum LUMC linear peptides [2]: 0.5; Control serum LUMC looped peptides [2]: 0.7 |
| YRRATRRVRGGDGKM | 0.3 | 0.2 | 0.1 | 0.1 | 0.3 | 0.2 | 0.3 | 0.1 | 0.8 | 0.4 | 0.7 | 0.3 | 0.5 | 0.3 | 0.2 | 0.1 | 0.2 | 0.0 | 0.1 | 0.2 | Binding of serum SARS-green to linear peptides of protein N of SARS-CoV Urbani [1]: 0.4; Binding of serum SARS-yellow to linear peptides of protein N of SARS-CoV Urbani [1]: 0.6; Binding of Control Serum Blood-Bank to Looped peptides [2]: 0.4; Binding of Control serum Blood-bank to linear peptides [2]: 0.8; Binding of Control serum LUMC to linear peptides [2]: 0.7; Binding of Control serum LUMC to looped peptides [2]: 0.3 |
| VSGKGQQQQGQTVTK |  | 0.9 |  | 0.3 |  | 0.5 |  | 0.3 |  | 0.5 |  | 0.5 |  | 0.5 | 0.5 | 0.6 | 0.2 | 0.4 | 0.1 | 0.3 | Binding of serum 1a to linear peptide (PEPSCAN-ELISA) [1]: 1.2; Binding of serum 1b to linear peptide (PEPSCAN-ELISA) [1]: 0.6; Binding of serum 2 to linear peptide (PEPSCAN-ELISA) [1]: 0.6; Binding of serum 6 to linear peptide (PEPSCAN-ELISA) [1]: 0.4; Binding of serum 37 to linear peptide (PEPSCAN-ELISA) [1]: 0.9; Binding of serum 62 to linear peptide (PEPSCAN-ELISA) [1]: 1.2; Binding of serum London to linear peptide (PEPSCAN-ELISA) [1]: 0.6; Binding of serum SARS-green to linear peptide (PEPSCAN-ELISA) [1]: 0.5; Binding of serum SARS-yellow to linear peptide (PEPSCAN-ELISA) [1]: 1.0; Binding of Control Serum Blood-Bank to Looped peptides [2]: 0.7; Binding of Control serum Blood-bank to linear peptides [2]: 1.0; Binding of Control serum LUMC to linear peptides [2]: 1.4; Binding of Control serum LUMC to looped peptides [2]: 0.9 |
| NNTASWFTALTQHGK | 0.2 | 0.2 | 0.1 | 0.1 | 0.2 | 0.2 | 0.1 | 0.1 | 0.7 | 0.4 | 0.6 | 0.2 | 0.4 | 0.2 | 0.1 | 0.1 | 0.1 | 0.3 | 0.1 | 0.2 | Binding of serum SARS-green to linear peptides of protein N of SARS-CoV Urbani [1]: 0.4; Binding of serum SARS-yellow to linear peptides of protein N of SARS-CoV Urbani [1]: 0.5; Binding of Control Serum Blood-Bank to Looped peptides [2]: 0.5; Binding of Control serum Blood-bank to linear peptides [2]: 0.6; Binding of Control serum LUMC to linear peptides [2]: 0.7; Binding of Control serum LUMC to looped peptides [2]: 0.4 |
